Source: PMC12662241, “New xanthone and chemical constituents from the aerial parts of Mallotus glomerulatus and their cytotoxicity in MCF-7 and MDA-MB-231 breast cancer cells” (ADMET & DMPK, 2025)
Where two headings read alike, the source gives them in different places. One block for each molecule: values may come before it.

Experiments:
[1] = tested on: MCF-7 cells; experiment: Primary screening, MTT cell viability, MCF-7; settings: for viability at 50 µM: Homo sapiens, MCF7, 72 h, read-out: MCF-7 cell viability, %, 50 μM, 72 h, MTT; for inhibition of viability of MCF-7 cells: primary single-concentration screening
Method: (§1) MCF-7 cells were cultured in Dulbecco's Modified Eagle Medium/Nutrient Mixture F-12 (DMEM/F-12) (Gibco, New York, USA), which was supplemented with 10 % fetal bovine serum (FBS) (Gibco, New York, USA) and 1 % Penicillin-Streptomycin (P/S) (Gibco, New York, USA). MDA-MB-231 cells were cultured in DMEM high glucose (Gibco, New York, USA), supplemented with 10 % FBS and 1 % P/S.
(§2) MCF-7 cells were cultured in DMEM/F-12, while MDA-MB-231 cells were maintained in high-glucose DMEM. Both media were supplemented with 10 % foetal bovine serum (FBS) and 1 % penicillin/streptomycin (P/S). Cells were incubated for 24 h at 37 °C in a humidified atmosphere with 5 % CO2. […] Doxorubicin was used as a positive control. Following compound treatment, cells were incubated for 72 h under standard culture conditions. After treatment, the medium was replaced with serum-free medium containing 0.5 mg mL^-1 of 3-(4,5-dimethylthiazol-2-yl)-2,5-diphenyltetrazolium bromide (MTT), and cells were incubated for an additional 3 h. The MTT solution was then removed, and dimethyl sulfoxide (DMSO) was added to solubilize the formazan crystals. Absorbance was measured at 595 nm using a Microplate Spectrophotometer MR-850 BioPlate Reader (Biometrics Technologies, Wilmington, DE, USA). Compounds that reduced cell viability to ≤20 % compared to untreated controls were identified as hits for subsequent dose-response analysis. […] Treated cells were incubated for 72 h, followed by an MTT assay as described above. The absorbance at 595 nm was recorded, and IC50 values were determined using GraphPad Prism 9 (GraphPad Software, San Diego, CA, USA).

[2] = tested on: MDA-MB-231 cells; experiment: Primary screening, MTT cell viability, MDA-MB-231; settings: for viability at 50 µM: Homo sapiens, MDA-MB-231, 72 h, read-out: MDA-MB-231 cell viability, %, 50 μM, 72 h, MTT
Method: as §1, §2

[3] = tested on: HepG2 cells; settings: for SI (CC50/IC50) HepG2: MCF-7: ratio of CC50 in HepG2 to IC50 in MCF-7; for SI (CC50/IC50) HepG2: MDA-MB-231: ratio of CC50 in HepG2 to IC50 in MDA-MB-231
Method: (§3) The human liver cells (HepG2 cells) were seeded into a 96-well plate at a cell density of 10^4 cells/well and were incubated with DMEM/F-12 with 10 % FBS and 1 % P/S for 24 hours in an incubator (37 °C and 5 % CO2). […] Then, they were additionally incubated for 72 hours. After 72 hours of incubation, the culture media containing the compounds were removed, and serum-free media containing MTT was added instead, with an additional 3 hours of incubation at 37 °C and 5 % CO2. After 3 hours of incubation, the MTT-containing media was removed and DMSO was added to the assay plates, resulting in different shades of purple colour measured by Microplate Spectrophotometer MR-850 BioPlate Reader. The calculation of CC50 was analysed by using GraphPad Prism 9.

[4] = tested on: MCF-7 cells; experiment: Secondary screening (dose-response), MTT assay, MCF-7; type: cell-based, human; settings: read-out: IC50 MCF-7
Method: as §1, §2

[5] = tested on: MDA-MB-231 cells; experiment: Secondary screening (dose-response), MTT assay, MDA-MB-231; type: cell-based, human; settings: read-out: IC50 MDA-MB-231
Method: as §1, §2

[6] = in vitro; settings: human, HepG2 cells
Method: as §3

[7] = tested on: MCF-7 cells; settings: 50 µM
Method: as §1, §2

[8] = tested on: MDA-MB-231 cells; settings: 50 µM
Method: as §1, §2

Molecule: O=c1cc(-c2ccccc2)oc2cc(O)cc(O)c12 [Compound 9, chrysin]
- viability at 50 µM ([1]; mean ± SEM): 76.7 ± 3.4%
- viability at 50 µM ([2]; mean ± SEM): 64.5 ± 1.19%

Molecule: (3,4,5)-trihydroxy-6-methoxy-2,7-bis(3-methylbut-2-en-1-yl)-9H-xanthen-9-one [Compound 1]
- MCF-7 cell viability, % ([1]; 50 μM, 72 h, MTT, mean ± SEM): 1.60 ± 0.10%
- inhibition of viability of MCF-7 cells ([1]; 50 μM, 72 h): more than 80%
- CC50 ([3]; read-out: CC50 HepG2, 72 h, MTT): 32800 nM
- MDA-MB-231 cell viability, % ([2]; 50 μM, 72 h, MTT, mean ± SEM): 59.00 ± 3.33%
- IC50 ([4]; 72 h, MTT, mean ± SD): 28300 nM
- IC50 ([5]; 72 h, MTT, mean ± SD): 34200 nM

Molecule: CC1(C)C(=O)C=C[C@]2(C)[C@@H]1CC[C@@]13C[C@@H](CC[C@H]12)C(O)(CO)C3 (stereo partly drawn) [Compound 4, anomaluone]
- viability at 50 µM ([1]; mean ± SEM): 72.7 ± 4.68%
- viability at 50 µM ([2]; mean ± SEM): 53.8 ± 1.88%

- IC50 ([4]; Homo sapiens, MCF7, 72 h, MTT, mean ± SD): 660 nM
- IC50 ([5]; Homo sapiens, MDA-MB-231, 72 h, MTT, mean ± SD): 980 nM
Molecule: COc1cccc2c1C(=O)c1c(O)c3c(c(O)c1C2=O)C[C@@](O)(C(=O)CO)C[C@@H]3O[C@H]1C[C@H](N)[C@H](O)[C@H](C)O1 [Doxorubicin, reference compound]
- viability at 50 µM ([1]; mean ± SEM): 4.02 ± 0.24%
- SI (CC50/IC50) HepG2: MCF-7 ([3]; listed as DoxorubICin): 0.83
- SI (CC50/IC50) HepG2: MCF-7 ([3]; listed as doxorubicin): below 1
- SI (CC50/IC50) HepG2: MDA-MB-231 ([3]; listed as DoxorubICin): 0.56
- SI (CC50/IC50) HepG2: MDA-MB-231 ([3]; listed as doxorubicin): below 1
- viability at 50 µM ([2]; mean ± SEM): 4.72 ± 1.07%
- CC50 at 72 h [6]: 550 nM

Molecule: COc1cc(O)c2c(c1)O[C@H](c1ccccc1)CC2=O [Compound 7, pinostrobin]
- viability at 50 µM ([1]; mean ± SEM): 88.5 ± 4.12%
- viability at 50 µM ([2]; mean ± SEM): 61.6 ± 3.69%

Molecule: COc1cc2c(O[C@@H]3OC[C@@H](OC)[C@H](OC)[C@H]3O)c3c(c(-c4ccc5c(c4)OCO5)c2cc1OC)C(=O)OC3 [Compound 10, cleistanthin A]
- viability at 50 µM ([1]; mean ± SEM): 1.72 ± 0.23%
- inhibition of viability of MCF-7 cells ([1]; 50 μM, 72 h): more than 80%
- SI (CC50/IC50) HepG2: MDA-MB-231 [3]: 268.50
- SI (CC50/IC50) HepG2: MDA-MB-231 ([3]; listed as cleistanthin A): > 100
- viability at 50 µM ([2]; mean ± SEM): 8.85 ± 0.73%
- inhibition of viability of MDA-MB-231 cells ([2]; primary single-concentration screening, 50 μM, 72 h): more than 80%
- CC50 at 72 h [6]: 5370 nM
- IC50 ([4]; Homo sapiens, MCF7, 72 h): 540 nM
- IC50 ([5]; Homo sapiens, MDA-MB-231, 72 h): 20 nM

Molecule: 3,6-phenanthrenedione [Compound 5]
- MCF-7 cell viability, % [7]: 75.58 ± 4.26%
- MDA-MB-231 cell viability, % [8]: 68.01 ± 3.88%

Molecule: COc1cc(-c2cc(=O)c3c(O)c(OC)c(OC)cc3o2)cc(OC)c1OC [Compound 8, 5-hydroxy-6,7,3',4',5'-pentamethoxyflavone]
- viability at 50 µM ([1]; mean ± SEM): 63.1 ± 1.83%
- viability at 50 µM ([2]; mean ± SEM): 44.7 ± 1.93%

Molecule: O=C1C[C@@H](c2ccccc2)Oc2cc(O)cc(O)c21 [Compound 6, pinocembrin]
- viability at 50 µM ([1]; mean ± SEM): 95.6 ± 2.96%
- viability at 50 µM ([2]; mean ± SEM): 74.4 ± 2.32%

Molecule: C[C@H]1C(=O)CC[C@@H]2[C@]1(C)CC[C@H]1[C@@]2(C)CC[C@@]2(C)[C@@H]3CC(C)(C)CC[C@]3(C)CC[C@]12C [Compound 3, friedelin]
- viability at 50 µM ([1]; mean ± SEM): 79.2 ± 4.29%
- viability at 50 µM ([2]; mean ± SEM): 68.1 ± 2.96%

Molecule: CC(=O)c1ccc(O)cc1 [Compound 11, 4-hydroxyacetophenone]
- viability at 50 µM ([1]; mean ± SEM): 85.2 ± 4.2%
- viability at 50 µM ([2]; mean ± SEM): 50.2 ± 2.73%

Molecule: C=C[C@@]1(C)C[C@H]2C[C@H](O)[C@]3(O)[C@@H](CCCC3(C)C)[C@]2(C)CC1=O [Compound 2, glomerulatusin]
- viability at 50 µM ([1]; mean ± SEM): 77.7 ± 4.87%
- viability at 50 µM ([2]; mean ± SEM): 56.3 ± 2.17%
